Assay [1] concerns EC1014 Escherichia coli DHA-1. Briefly: Checkerboard assay, ceftazidime potentiation. The following applies: ceftazidime MIC 8-fold; EC1014 DHA-1 class C.
Assay [2] has as its system EC1004 Escherichia coli CMY-2. In words: Checkerboard assay, ceftazidime potentiation. The following applies: ceftazidime MIC 8-fold; EC1004 CMY-2 class C.
Assay [3] concerns ec300 Escherichia coli TEM-3. Briefly: Checkerboard assay, ceftazidime potentiation. The following applies: ceftazidime MIC 8-fold; ec300 TEM-3 class A.
Assay [4] relates to KP1010 Klebsiella pneumoniae SHV-12. Briefly: Checkerboard assay, ceftazidime potentiation. The following applies: ceftazidime MIC 8-fold; KP1010 SHV-12 class A.
Assay [5] relates to ec307 Escherichia coli SHV-4. In words: Checkerboard assay, ceftazidime potentiation. The settings on record: ceftazidime MIC 8-fold; ec307 SHV-4 class A.
The subject of assay [6] is KP1009 Klebsiella pneumoniae CTX-M-15. Briefly: Checkerboard assay, ceftazidime potentiation. The settings on record: ceftazidime MIC 8-fold; KP1009 CTX-M-15 class A.
In assay [7] the test system is ECL1003 Enterobacter cloacae Hyper AmpC expression. In words: Checkerboard assay, ceftazidime potentiation. The following applies: ceftazidime MIC 8-fold; ECL1003 Hyper AmpC class C.
Assay [8] deals with ec310 Escherichia coli ACT-1. Briefly: Checkerboard assay, ceftazidime potentiation. The settings on record: ceftazidime MIC 8-fold; ec310 ACT-1 class C.
In assay [9] the test system is CF1000 Citrobacter freundii Hyper AmpC expression. In words: Checkerboard assay, ceftazidime potentiation. The settings on record: ceftazidime MIC 8-fold; CF1000 Hyper AmpC class C.
For assay [10], the system named is EC1007 Escherichia coli KPC-3. Briefly: Checkerboard assay, ceftazidime potentiation. The following applies: ceftazidime MIC 8-fold; EC1007 KPC-3 class A.
The subject of assay [11] is ec308 Escherichia coli SHV-5. In words: Checkerboard assay, ceftazidime potentiation. The following applies: ceftazidime MIC 8-fold; ec308 SHV-5 class A.
Assay [12] concerns EC1007 Escherichia coli KPC-3. In words: Checkerboard assay, biapenem potentiation. The following applies: Biapenem MIC 8-fold; EC1007 KPC-3 class A.
The subject of assay [13] is EC1006 Escherichia coli FOX-5. Briefly: Checkerboard assay, ceftazidime potentiation. The following applies: ceftazidime MIC 8-fold; EC1006 FOX-5 class C.
For assay [14], the system named is EC1016 Escherichia coli FOX-5. In words: Checkerboard assay, ceftazidime potentiation. The settings on record: ceftazidime MIC 8-fold; EC1016 FOX-5 class C.
In assay [15] the test system is SM1000 Serratia marcescens SME-2. Briefly: Checkerboard assay, biapenem potentiation. The following applies: Biapenem MIC 8-fold; SM1000 SME-2 class A.
Assay [16] concerns KP1007 Klebsiella pneumoniae OXA-10, qnrB4. Briefly: Checkerboard assay, ceftazidime potentiation. The following applies: ceftazidime MIC 8-fold; KP1007 OXA-10, qnrB4 class D.
Assay [17] concerns ec302 Escherichia coli TEM-10. In words: Checkerboard assay, ceftazidime potentiation. The settings on record: ceftazidime MIC 8-fold; ec302 TEM-10 class A.
For assay [18], the system named is ec301 Escherichia coli TEM-6. In words: Checkerboard assay, ceftazidime potentiation. The following applies: ceftazidime MIC 8-fold; ec301 TEM-6 class A.
Assay [19] has as its system EC1010 Escherichia coli CMY-6. In words: Checkerboard assay, ceftazidime potentiation. The following applies: ceftazidime MIC 8-fold; EC1010 CMY-6 class C.
The test system of assay [20] is EC1011 Escherichia coli TEM-26. In words: Checkerboard assay, ceftazidime potentiation. The following applies: ceftazidime MIC 8-fold; EC1011 TEM-26 class A.
In assay [21] the test system is KP1004 Klebsiella pneumoniae KPC-2. In words: Checkerboard assay, ceftazidime potentiation. The settings on record: ceftazidime MIC 8-fold; KP1004 KPC-2 class A.
The subject of assay [22] is ec304 Escherichia coli TEM-26. Briefly: Checkerboard assay, ceftazidime potentiation. The settings on record: ceftazidime MIC 8-fold; ec304 TEM-26 class A.
For assay [23], the system named is EC1009 Escherichia coli TEM-10. Briefly: Checkerboard assay, ceftazidime potentiation. The settings on record: ceftazidime MIC 8-fold; EC1009 TEM-10 class A.
For assay [24], the system named is ec303 Escherichia coli TEM-12. Briefly: Checkerboard assay, ceftazidime potentiation. The following applies: ceftazidime MIC 8-fold; ec303 TEM-12 class A.
Assay [25] concerns EC1012 Escherichia coli TEM-12. In words: Checkerboard assay, ceftazidime potentiation. The following applies: ceftazidime MIC 8-fold; EC1012 TEM-12 class A.
The test system of assay [26] is EC1008 Escherichia coli CTX-M-3. In words: Checkerboard assay, ceftazidime potentiation. The settings on record: ceftazidime MIC 8-fold; EC1008 CTX-M-3 class A.
In assay [27] the test system is KP1005 Klebsiella pneumoniae CTX-M-14. Briefly: Checkerboard assay, ceftazidime potentiation. The settings on record: ceftazidime MIC 8-fold; KP1005 CTX-M-14 class A.
For assay [28], the system named is ec306 Escherichia coli SHV-2. In words: Checkerboard assay, ceftazidime potentiation. The following applies: ceftazidime MIC 8-fold; ec306 SHV-2 class A.
Assay [29] deals with KP1008 Klebsiella pneumoniae KPC-2. In words: Checkerboard assay, ceftazidime potentiation. The following applies: ceftazidime MIC 8-fold; KP1008 KPC-2 class A.
Assay [30] has as its system ECL1004 Enterobacter cloacae NMC-A. In words: Checkerboard assay, biapenem potentiation. The following applies: Biapenem MIC 8-fold; ECL1004 NMC-A class A.
The subject of assay [31] is KP1012 Klebsiella pneumoniae SHV-18. Briefly: Checkerboard assay, ceftazidime potentiation. The settings on record: ceftazidime MIC 8-fold; KP1012 SHV-18 class A.
The test system of a further assay is PAM2035. In words: Tigemonam potentiation assay (MPC@4), class C and D. Type of assay: cell-based, Pseudomonas aeruginosa. As for the experimental part: (§1) Selected β-lactamase inhibitors were also tested for their ability to potentiate the monobactam tigemonam.
The next assay deals with KP1007 OXA-10. It counts as cell-based, Klebsiella pneumoniae. As for the experimental part: as §1
A further assay has as its system KPX1001 OXA-2. Type of assay: cell-based. The method, then:
as §1

The next assay has as its system ECL1002. In words: Tigemonam potentiation assay (MPC@4), class C and D. Type of assay: cell-based, Enterobacter cloacae. The method, then: as §1
For another assay, the system named is EC1010 CMY-6. The assay is described as above. Type of assay: cell-based, Escherichia coli. The following applies: EC1010 CMY-6 class C. As for the experimental part: as §1

Turning to `O=C(O)CC1CC[C@H](NC(=O)Cc2cccs2)B(O)O1` (stereo partly drawn) [Compound 1, 2-((3R)-2-hydroxy-3-(2-(thiophen-2-yl)acetamido)-1,2-oxaborinan-6-yl)acetic acid], the MPC8 result in assay [1] is “Z (MPC8 of greater than 10 μg/mL)”; in assay [2] it was “X (MPC8 of 2.5 μg/mL or less)”; in [3], “Y (MPC8 of greater than 2.5 μg/mL to 10 μg/mL)”; in assay [4], “Y (MPC8 of greater than 2.5 μg/mL to 10 μg/mL)”; in assay [5], “Y (MPC8 of greater than 2.5 μg/mL to 10 μg/mL)”; in assay [6], “Y (MPC8 of greater than 2.5 μg/mL to 10 μg/mL)”. Also, the MPC8 entry in assay [7] was “Z (MPC8 of greater than 10 μg/mL)”; in assay [8] it was “X (MPC8 of 2.5 μg/mL or less)”; in [9] it was “Y (MPC8 of greater than 2.5 μg/mL to 10 μg/mL)”; in [10] it was “X (MPC8 of 2.5 μg/mL or less)”; in assay [11], “Y (MPC8 of greater than 2.5 μg/mL to 10 μg/mL)”; in assay [12] it was “X (MPC8 of less than 0.16 μg/mL)”. For the same molecule, the MPC8 entry was “Y (MPC8 of greater than 2.5 μg/mL to 10 μg/mL)” in [13]; “Z (MPC8 of greater than 10 μg/mL)” in [14]; “Y (MPC8 of 0.16 μg/mL to 1 μg/mL)” in assay [15]; “Y (MPC8 of greater than 2.5 μg/mL to 10 μg/mL)” in assay [16]; “Z (MPC8 of greater than 10 μg/mL)” in assay [17]; “Z (MPC8 of greater than 10 μg/mL)” in assay [18]. The MPC8 result is “Y (MPC8 of greater than 2.5 μg/mL to 10 μg/mL)” in assay [19]; “Z (MPC8 of greater than 10 μg/mL)” in [20]; “X (MPC8 of 2.5 μg/mL or less)” in assay [21]; “Z (MPC8 of greater than 10 μg/mL)” in assay [22]; “Z (MPC8 of greater than 10 μg/mL)” in [23]; “Y (MPC8 of greater than 2.5 μg/mL to 10 μg/mL)” in assay [24]. For the same molecule, the MPC8 entry in [25] is on record as “Y (MPC8 of greater than 2.5 μg/mL to 10 μg/mL)”; in assay [26] it was “X (MPC8 of 2.5 μg/mL or less)”; in assay [27], “Z (MPC8 of greater than 10 μg/mL)”; in assay [28], “Y (MPC8 of greater than 2.5 μg/mL to 10 μg/mL)”; in assay [29], “X (MPC8 of 2.5 μg/mL or less)”; in assay [30], “Y (MPC8 of 0.16 μg/mL to 1 μg/mL)”. For the same molecule, the MPC8 entry in [31] is “Y (MPC8 of greater than 2.5 μg/mL to 10 μg/mL)”.
With `CC1(C)[C@H](NC(=O)/C(=N\OCC(=O)O)c2csc(N)n2)C(=O)N1OS(=O)(=O)O` [Tigemonam], the “Tigemonam MIC” value is 8 µg/mL in the assay with PAM2035; 256 µg/mL in the assay with KP1007 OXA-10; 8 µg/mL in the assay with KPX1001 OXA-2; 32 µg/mL in the assay with ECL1002; 16 µg/mL in the assay on EC1010 CMY-6.

The record behind these values is patent US11090319B2, “Therapeutic uses of pharmaceutical compositions comprising cyclic boronic acid ester derivatives” (Melinta Subsidiary Corp., priority 2010, dated 2021).
